Test results published in US20080076751A1, “Azetidinone Derivatives and Methods of Use Thereof” (priority 2006, published 2008).

biological target: T1, human CaV3.2 (Homo sapiens, UniProt O95180); assay: IonWorks screen for hCaV3.2 (T-type calcium current, voltage clamp); assay type: cell-based; settings: IonWorks HT, HEK cells, 10 min incubation, pulse 10, 8-point curve; read-out: IW hCav3 2 IC50
T1 construct: expressed in transfected cells
Text: Functional evaluation of voltage-gated ion channels can be used to determine potency and/or single concentration efficacy of the Azetidinone Derivatives of the present invention. Two different methodologies can be used to measure ion currents: the lonWorks HT (Molecular Devices, Sunnyvale, Calif.) a moderate throughput voltage clamp screening platform that utilizes 96-well compound plates and conventional whole cell patch clamp for lower throughput, higher fidelity determinations.
HEK cells are transiently transfected and then selected for stable heterologous expression of different channel proteins of interest. Calcium channel cell lines expressed a resting potassium current, human Kir2.1, and the pore forming α-subunit of voltage-gated calcium channels. In the case of CaV2.1 cells the auxiliary subunit, β2a, is also expressed. Calcium channel lines that are used to generate the data will express either human CaV3.2, rat CaV3.2 or human CaV2.1. The human heart sodium channel, hNaV1.5, are stably expressed in CHO cells.
Cell lines can be grown at 37° C. in humidified incubators, equilibrated with 95% air/5% CO2. CHO cells can be grown in Ham's F-12 medium. HEK cells can be grown in DMEM. All media are supplemented with 10% heat-inactivated fetal bovine serum, penicillin, streptomycin and appropriate selection antibiotics (zeocin, geneticin and/or hygromycin). Cells are passaged when 80% confluent or less.
IonWorks Screen for hCaV3.2
The extracellular buffer for experiments using this instrument contained the following (mM) (NaCl 125, HEPES 10, KCl 5.4, CaCl2 1.8, MgCl2 1.8, 0.2 BaCl2 pH 7.35). The lonWorks uses amphotericin to gain electrical access to the cell interior. The internal solution contained (mM concentrations): 130 K-gluconate, 20 KCl, 5 HEPES-KOH (pH 7.25), 2 CaCl2, 1 MgCl2. Amphotericin added at 5 mg in 65 mL when present (in 650 μL DMSO). All internal and external solutions for this experiment contain 1% DMSO. Cells were acutely trypsinized from a T-75 flask and resuspended in extracellular buffer at a density of 2×10^5 cells/mL.
Experiments were performed at room temperature. Transmembrane potential was held at −100 mV for 5 seconds prior to running the voltage protocol. During this time leak currents were measured during a step to −110 mV (200 milliseconds). T-type calcium currents were activated with a 250 millisecond step to −20 mV. This depolarization step was repeated for a total of 10 pulses with an interpulse interval of 1 second. Data were excluded if the following acceptance criteria were not met: total resistance for the pre-compound scan>65 MΩ, pre-compound current>250 pA, post compound total resistance>50 MΩ.
T-type currents were measured as the peak inward current minus the current at the end of the 250 msec step to −20 mV. After the recoding configuration was established there was a pre-compound measurement of current amplitude. Compound was added as a 3× solution containing 1% DMSO. After incubation with compound for 10 minutes currents were measured again. The current amplitude after compound addition was divided by the pre-compound current for pulse 10 to determine the fraction of current remaining after compound addition. For each compound, 8-point concentration-effect relationships were measured with ½ log serial dilutions.

T1 sequence (O95180 whole entry): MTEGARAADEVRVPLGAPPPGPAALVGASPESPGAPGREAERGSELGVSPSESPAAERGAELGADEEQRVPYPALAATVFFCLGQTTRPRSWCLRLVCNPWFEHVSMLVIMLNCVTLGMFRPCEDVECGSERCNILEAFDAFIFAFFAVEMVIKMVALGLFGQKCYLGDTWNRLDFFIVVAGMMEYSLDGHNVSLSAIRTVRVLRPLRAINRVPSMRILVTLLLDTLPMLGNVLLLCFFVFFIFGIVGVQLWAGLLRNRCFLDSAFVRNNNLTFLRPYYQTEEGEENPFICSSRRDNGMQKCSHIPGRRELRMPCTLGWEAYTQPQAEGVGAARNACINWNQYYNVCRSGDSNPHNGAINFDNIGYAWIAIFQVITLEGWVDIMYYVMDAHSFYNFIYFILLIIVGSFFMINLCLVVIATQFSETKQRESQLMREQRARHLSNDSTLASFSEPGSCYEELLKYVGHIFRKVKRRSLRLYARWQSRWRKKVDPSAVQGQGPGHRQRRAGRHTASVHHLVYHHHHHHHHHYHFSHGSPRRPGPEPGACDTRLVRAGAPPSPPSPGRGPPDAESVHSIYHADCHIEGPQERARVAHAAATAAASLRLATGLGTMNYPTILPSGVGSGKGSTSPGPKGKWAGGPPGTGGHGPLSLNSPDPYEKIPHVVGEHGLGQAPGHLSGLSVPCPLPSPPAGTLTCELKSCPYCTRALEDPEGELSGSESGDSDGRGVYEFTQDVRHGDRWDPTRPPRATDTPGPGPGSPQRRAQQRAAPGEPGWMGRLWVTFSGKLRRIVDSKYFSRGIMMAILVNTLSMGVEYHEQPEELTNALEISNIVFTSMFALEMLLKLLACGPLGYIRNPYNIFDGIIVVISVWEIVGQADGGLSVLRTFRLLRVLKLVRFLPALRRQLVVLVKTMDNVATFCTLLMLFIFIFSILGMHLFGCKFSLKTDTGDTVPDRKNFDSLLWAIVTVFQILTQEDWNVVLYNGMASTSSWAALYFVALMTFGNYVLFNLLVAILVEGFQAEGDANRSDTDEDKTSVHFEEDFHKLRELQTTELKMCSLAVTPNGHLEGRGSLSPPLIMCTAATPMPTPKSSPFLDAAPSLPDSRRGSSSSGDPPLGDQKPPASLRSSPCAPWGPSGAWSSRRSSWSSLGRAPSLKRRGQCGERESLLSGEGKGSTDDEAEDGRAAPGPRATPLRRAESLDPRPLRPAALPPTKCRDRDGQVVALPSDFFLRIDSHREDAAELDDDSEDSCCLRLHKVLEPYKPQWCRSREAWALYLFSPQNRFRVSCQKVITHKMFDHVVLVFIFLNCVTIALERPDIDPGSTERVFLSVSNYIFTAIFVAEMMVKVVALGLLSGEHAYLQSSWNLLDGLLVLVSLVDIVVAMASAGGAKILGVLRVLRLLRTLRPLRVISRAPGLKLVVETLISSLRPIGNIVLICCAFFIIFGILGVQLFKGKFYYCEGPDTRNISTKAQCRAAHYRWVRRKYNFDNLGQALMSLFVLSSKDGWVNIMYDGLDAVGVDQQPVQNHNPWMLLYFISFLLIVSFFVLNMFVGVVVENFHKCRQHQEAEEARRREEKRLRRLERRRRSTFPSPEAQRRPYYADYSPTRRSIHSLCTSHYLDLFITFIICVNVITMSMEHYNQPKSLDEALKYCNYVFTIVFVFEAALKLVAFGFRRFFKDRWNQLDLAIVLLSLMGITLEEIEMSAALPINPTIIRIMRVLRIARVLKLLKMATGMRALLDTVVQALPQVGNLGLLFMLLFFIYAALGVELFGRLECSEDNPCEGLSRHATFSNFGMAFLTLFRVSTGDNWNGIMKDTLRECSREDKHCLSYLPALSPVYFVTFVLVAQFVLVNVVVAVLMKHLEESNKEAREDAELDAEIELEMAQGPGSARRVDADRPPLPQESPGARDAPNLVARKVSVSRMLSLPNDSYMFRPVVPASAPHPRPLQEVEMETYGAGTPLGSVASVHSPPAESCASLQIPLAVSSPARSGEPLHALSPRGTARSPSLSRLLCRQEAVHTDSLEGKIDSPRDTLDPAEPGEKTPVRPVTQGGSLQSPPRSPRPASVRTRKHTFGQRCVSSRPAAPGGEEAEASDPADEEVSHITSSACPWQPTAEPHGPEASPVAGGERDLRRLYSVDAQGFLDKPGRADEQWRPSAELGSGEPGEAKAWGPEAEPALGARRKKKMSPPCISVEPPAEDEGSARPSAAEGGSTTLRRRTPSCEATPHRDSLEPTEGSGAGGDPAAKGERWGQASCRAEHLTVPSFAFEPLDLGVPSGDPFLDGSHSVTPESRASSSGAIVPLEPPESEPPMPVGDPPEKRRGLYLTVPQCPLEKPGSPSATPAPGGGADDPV

SMILES | IC50 [µM]
O=C(NCc1ccccc1F)N1CCC2(CC1)C(=O)N(c1cccc(F)c1)C2c1ccc(Cl)cc1 (stereo not shown) | 0.269
O=C(NCc1ccccn1)N1CCC2(CC1)C(=O)N(c1cccc(F)c1)C2c1ccc(Cl)cc1 (stereo not shown) | 1.33
CC[C@H](C)[C@H](NC(=O)N1CCC2(CC1)C(=O)N(C(C)C)C2c1ccc(Br)cc1)C(=O)OC (stereo partly shown) | 0.277
C[C@H](NC(=O)N1CCC2(CC1)C(=O)N(c1cncnc1)C2c1cccnc1)c1ccc(F)cc1 (stereo partly shown) | 2.59
CC(NC(=O)N1CCC2(CC1)C(=O)N(c1cccc(F)c1)C2c1ccc(Cl)cc1)c1ccccn1 (stereo not shown) | 2.17
CC[C@H](C)[C@H](NC(=O)N1CCC2(CC1)C(=O)N(c1cccc(Cl)c1)C2c1cccnc1)C(=O)OC (stereo partly shown) [drawing 640] | 0.88
O=C(Nc1cc(F)cc(F)c1)N1CCC2(CC1)C(=O)N(c1cccc(Cl)c1)C2c1cccnc1 (stereo not shown) [drawing 635] | 0.021
C[C@@H](NC(=O)N1CCC2(CC1)C(=O)N(c1cccc(F)c1)C2c1ccc(Cl)cc1)c1ccccc1 (stereo partly shown) | 0.351
N#Cc1cncc(N2C(=O)C3(CCN(C(=O)Nc4cc(F)cc(F)c4)CC3)C2c2ccccn2)c1 (stereo not shown) | 2.38
C[C@H](NC(=O)N1CCC2(CC1)C(=O)N(c1cccc(F)c1)C2c1ccc(Cl)cc1)c1ccc(F)cc1 (stereo partly shown) | 0.082
CC[C@H](C)[C@H](NC(=O)N1CCC2(CC1)C(=O)N(c1cccc(F)c1)C2c1ccc(Cl)cc1)C(N)=O (stereo partly shown) | 0.965
CC(NC(=O)N1CCC2(CC1)C(=O)N(c1cccc(Cl)c1)C2c1ccccn1)c1ccc(F)cc1 (stereo not shown) [drawing 575] | 0.745

biological target: T2, TRPV1 (VR1) (Rattus norvegicus, UniProt O35433); assay: TRPV1 screening assay (FLIPR, Fluo-4 calcium), capsaicin stimulation; assay type: cell-based; settings: FLIPR, HEK293-TetOFF-TRPV1, capsaicin 50 nM final; read-out: VR1 flipr CAPSAICIN IC50
T2 construct: expressed in transfected cells; host or cells: HEK293-TetOFF, expression induced by withdrawing doxycycline
T2 sequence (O35433 whole entry): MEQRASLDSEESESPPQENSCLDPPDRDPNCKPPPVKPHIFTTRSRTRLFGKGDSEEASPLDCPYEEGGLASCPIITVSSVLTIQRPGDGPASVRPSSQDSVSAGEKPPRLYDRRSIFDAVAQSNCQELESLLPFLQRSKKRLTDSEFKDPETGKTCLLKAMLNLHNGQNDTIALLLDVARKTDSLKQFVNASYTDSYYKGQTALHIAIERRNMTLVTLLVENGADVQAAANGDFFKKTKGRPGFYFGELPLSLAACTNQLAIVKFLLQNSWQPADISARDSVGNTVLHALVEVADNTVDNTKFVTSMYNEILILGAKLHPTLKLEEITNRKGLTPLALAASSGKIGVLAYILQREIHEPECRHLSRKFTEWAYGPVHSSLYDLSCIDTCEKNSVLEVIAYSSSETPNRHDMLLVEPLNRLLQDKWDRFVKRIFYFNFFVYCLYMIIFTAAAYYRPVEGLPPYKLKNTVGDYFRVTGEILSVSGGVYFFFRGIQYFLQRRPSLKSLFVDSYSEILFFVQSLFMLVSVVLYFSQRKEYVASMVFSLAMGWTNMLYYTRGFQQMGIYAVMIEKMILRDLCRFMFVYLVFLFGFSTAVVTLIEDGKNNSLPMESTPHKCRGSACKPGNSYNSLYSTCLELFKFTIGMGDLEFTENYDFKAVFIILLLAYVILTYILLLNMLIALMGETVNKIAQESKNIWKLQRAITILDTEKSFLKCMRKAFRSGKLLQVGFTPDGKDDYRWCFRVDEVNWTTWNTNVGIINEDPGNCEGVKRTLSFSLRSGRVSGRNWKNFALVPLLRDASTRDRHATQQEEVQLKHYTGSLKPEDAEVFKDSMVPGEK
Text: • 1) Cell line: HEK293-Tet^OFF-TRPV1 • 2) Media: MEM (Invitrogen) • 3) 10% Tet-FBS (Clontech #8630-1) • 4) Fungizone (Gibe #15290-018 (100X)) • 5) Penn/Strep (Gibco #15140-122 (100X)) • 6) Geneticin (Gibco #10131-027 (100X)) • 7) Hygromycin (Clontech #8057-1) • 8) Doxycycline (Clontech #8634-1) • 9) Trypsin/EDTA (Gibco #25200-056) • 10) 100 mm cell culture plates (Falcon #3003) • 11) 96-well poly-D-lysine plates (Fisher #08-774-256) • 12) Hank's Balanced Salt Solution (HBSS) (GIBCO #14025-092) • 13) HEPES Buffer (GIBCO #15630-080) • 14) 30% BSA (Research Organics #1334A) • 15) Probenecid (Sigma P-8761) • 16) Fluo-4, AM (50 μg) (Molecular Probes F-23917) • 17) Pluronic F-127 20% (Molecular Probes P-3000). • 18) capsazepine (Sigma C-191) • 19) capsaicin (Sigma M-2028) • 20) compound plates (NUNC #442587) • 21) black pipet tips 96-well FLIPR (Robbins Scientific 1043-24-0) • 22) Additional reagents available from Fisher: methanol, DMSO, NaOH Reagent Preparation: 1) Cells: HEK293-Tet^OFF-TRPV11
• and Doxycycline 2.5 μg/mL final (from a 1000× stock in PBS) • Cells must be fed and/or split every 2-3 days (to maintain transcriptional repression with Doxycycline). • Must be split no more than 1:5 (50-75% confluency) to maintain growth and viability. • Grown on regular tissue culture plates (e.g Falcon 3003-100 mm) • Split cells via Trypsin/EDTA: incubate with trypsin at room temperature no longer than 5 minutes (HEK293 cells have a tendency to ball up if over trypsinized). • Two days prior to assay, the cells are split into 96-well plates in cell media in the absence of doxycycline at a concentration of 40,000 cells/well in a volume of 200 μL. 2) FLIPR buffer is prepared fresh:
Add 5 mL of Probenecid Solution, prepared as follows: 710 mg of probenecid (Sigma P-8761) is solubilized in 5 mL of 1N NaOH, 5 mL of above buffer is added for final volume of 10 mL. (of which 5 mL goes back into FLIPR buffer)
Combine 42 μL of dye mixture with 11 mL of FLIPR buffer/96-well plate.
Stock solution of 0.1 M capsaicin is prepared in MeOH (50 mg+1.6 mL MeOH). Store 50 μL aliquots at −80° C.
For assay: • a) Dilute stock by adding 0.8 μL into 1 mL of MeOH (final=80 uM). • b) Add 50 μL of diluted stock to 20 mL of FLIPR buffer (final=0.2 uM) • c) Agonist solution is added 150 μL/well to 96-well plate. • d) Final agonist concentration on cells will be 50 nM. […] Laser is adjusted upwards for an average signal≧10,000/well and less than 10% variability. 7) Compound addition conditions are as follows: • FLIPR setup (dual sequence parameters): • Sequence 1: • First interval 1 sec/60 counts • Second interval 6 sec/50 counts • Fluid addition=50 μL • Pipettor height 110 μL • Dispense Speed=30 μL/sec • Sequence 2: • Second interval 1 sec/60 counts • Second interval 6 sec/40 counts • Fluid addition=50 μL • Pipettor height=140 μL • Dispense Speed=50 μL/sec Data Analysis: • 1) Data from both additions is reported as Max-Min for each well

SMILES | IC50 [µM]
CC(C)(C)c1ccc(NC(=O)N2CCC3(CC2)C(=O)N(c2ccccn2)C3c2ccccc2)cc1 (stereo not shown) | 0.001

same assay, conditions: reference antagonist in reagent preparation; read-out: IC50 of competitive antagonist capsazepine

SMILES | IC50 [µM]
Oc1cc2c(cc1O)CN(C(=S)NCCc1ccc(Cl)cc1)CCC2 [capsazepine, reference compound] | ~0.5

biological target: T3, human NPC1L1 (Homo sapiens, UniProt Q9UHC9); assay: NPC1L1 binding assay (BODIPY-labeled glucuronidated ezetimibe competition), human; settings: HEK-293 cells expressing human NPC1L1, 4 hours at 37° C.
T3 construct: expressed in transfected cells; host or cells: HEK-293 (geneticin selection)
T3 sequence (Q9UHC9 22-1359): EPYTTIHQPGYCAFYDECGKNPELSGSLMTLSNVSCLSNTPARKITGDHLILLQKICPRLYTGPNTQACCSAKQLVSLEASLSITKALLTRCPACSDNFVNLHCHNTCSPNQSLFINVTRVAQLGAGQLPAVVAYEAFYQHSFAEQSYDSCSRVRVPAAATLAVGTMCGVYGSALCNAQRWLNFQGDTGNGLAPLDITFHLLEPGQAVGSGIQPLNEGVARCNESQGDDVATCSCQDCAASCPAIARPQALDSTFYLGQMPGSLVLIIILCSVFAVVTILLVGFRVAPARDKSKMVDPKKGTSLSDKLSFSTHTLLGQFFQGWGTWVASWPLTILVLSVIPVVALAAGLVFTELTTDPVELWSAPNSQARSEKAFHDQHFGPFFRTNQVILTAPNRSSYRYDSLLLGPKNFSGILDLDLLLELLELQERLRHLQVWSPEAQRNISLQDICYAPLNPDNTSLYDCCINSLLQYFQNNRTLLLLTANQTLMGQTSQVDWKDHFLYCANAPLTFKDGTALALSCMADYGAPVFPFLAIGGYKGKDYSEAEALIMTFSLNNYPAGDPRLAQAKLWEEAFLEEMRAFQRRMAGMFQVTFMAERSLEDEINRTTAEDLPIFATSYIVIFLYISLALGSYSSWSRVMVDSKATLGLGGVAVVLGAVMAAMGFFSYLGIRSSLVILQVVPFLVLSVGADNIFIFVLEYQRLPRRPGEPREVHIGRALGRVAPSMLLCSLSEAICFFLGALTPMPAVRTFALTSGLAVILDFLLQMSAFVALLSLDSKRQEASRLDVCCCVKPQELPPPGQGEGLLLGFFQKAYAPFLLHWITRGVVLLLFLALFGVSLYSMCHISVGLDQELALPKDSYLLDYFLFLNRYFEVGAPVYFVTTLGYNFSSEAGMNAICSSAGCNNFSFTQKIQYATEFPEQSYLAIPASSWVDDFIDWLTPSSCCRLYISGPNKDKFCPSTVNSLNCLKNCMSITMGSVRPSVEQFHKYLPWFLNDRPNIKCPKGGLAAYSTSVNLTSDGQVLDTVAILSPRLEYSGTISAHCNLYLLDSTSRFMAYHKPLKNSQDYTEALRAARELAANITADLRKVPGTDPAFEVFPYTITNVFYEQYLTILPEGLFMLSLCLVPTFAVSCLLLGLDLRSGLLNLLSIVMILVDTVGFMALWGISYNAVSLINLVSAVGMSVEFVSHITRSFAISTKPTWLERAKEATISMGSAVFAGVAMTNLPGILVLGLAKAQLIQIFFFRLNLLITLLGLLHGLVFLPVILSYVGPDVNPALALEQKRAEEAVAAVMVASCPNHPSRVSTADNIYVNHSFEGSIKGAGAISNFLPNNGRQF
Description: HEK-293 cells expressing human NPC1L1 were plated into 384-well black/clear plates (BD Biosciences, Bedford Mass.) for binding experiments the following day. Cell growth media (DMEM, 10% fetal calf serum, 1 mg/mL geneticin, 100 Units/mL penicillin) was aspirated. Cell growth media ([…]) containing 250 nM BODIPY-labeled glucuronidated ezetimibe was added to each well. Cell growth media ([…]) containing the indicated concentration of compound was then added to the wells. Unlabeled glucuronidated ezetimibe ([…]) was used to determine nonspecific binding. The binding reaction was allowed to proceed for 4 hours at 37° C. Subsequently the cell growth media was aspirated and the cells washed once with PBS. The remaining fluorescent labeled glucuronidated ezetimibe bound to the cells was quantified using a FlexStation plate reader (Molecular Devices, Sunnyvale Calif.) to measure fluorescence intensity. Ki values were determined from competition binding curves (n=4 for each point) using Prism and Activity Base software.

SMILES | Ki [µM]
O=C(NC1CCCCC1)N1CCC2(CC1)C(=O)N(c1ccccc1)C2c1ccccc1 (stereo not shown) | 19.7
O=C(NCc1ccccc1Cl)N1CCC2(CC1)C(=O)N(c1ccccc1)C2c1ccccc1 (stereo not shown) | 17.6
O=C(NCc1cccc(F)c1)N1CCC2(CC1)C(=O)N(c1ccccc1)C2c1ccccc1 (stereo not shown) | 26
O=C(NC1CCCC1)N1CCC2(CC1)C(=O)N(c1ccccc1)C2c1ccccc1 (stereo not shown) | 31.2
O=C(Nc1ccccc1Cl)N1CCC2(CC1)C(=O)N(c1ccccc1)C2c1ccccc1 (stereo not shown) | 8.64
